According to PubChem BioAssay (NCI):
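Where inhibition never reached the appropriate level, the endpoint shown equals the highest concentration tested. Otherwise, values were interpolated linearly from a five-concentration, 48-hour dose response in 96-well plates. The concentration for full growth arrest is given as TGI.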

What was measured:
Test in all cases: NCI-60 cell line screen, 48 h
786-0 renal = tested on: 786-0 renal
A498 renal = tested on: A498 renal
A549 NSCLC = tested on: A549 NSCLC
ACHN renal = tested on: ACHN renal
BT-549 breast = tested on: BT-549 breast
CAKI-1 renal = tested on: CAKI-1 renal
CCRF-CEM leukemia = tested on: CCRF-CEM leukemia
COLO 205 colon = tested on: COLO 205 colon
DU-145 prostate = tested on: DU-145 prostate
EKVX NSCLC = tested on: EKVX NSCLC
HCC-2998 colon = tested on: HCC-2998 colon
HCT-116 colon = tested on: HCT-116 colon
HCT-15 colon = tested on: HCT-15 colon
HL-60(TB) leukemia = tested on: HL-60(TB) leukemia
HOP-62 NSCLC = tested on: HOP-62 NSCLC
HOP-92 NSCLC = tested on: HOP-92 NSCLC
HS 578T breast = tested on: HS 578T breast
HT29 colon = tested on: HT29 colon
IGROV1 ovarian = tested on: IGROV1 ovarian
K-562 leukemia = tested on: K-562 leukemia
KM12 colon = tested on: KM12 colon
LOX IMVI melanoma = tested on: LOX IMVI melanoma
M14 melanoma = tested on: M14 melanoma
MALME-3M melanoma = tested on: MALME-3M melanoma
MCF7 breast = tested on: MCF7 breast
MDA-MB-231 breast = tested on: MDA-MB-231 breast
MDA-MB-435 = tested on: MDA-MB-435
MDA-N = tested on: MDA-N
MOLT-4 leukemia = tested on: MOLT-4 leukemia
NCI-H226 lung = tested on: NCI-H226 lung
NCI-H23 lung = tested on: NCI-H23 lung
NCI-H460 lung = tested on: NCI-H460 lung
NCI-H522 lung = tested on: NCI-H522 lung
OVCAR-3 ovarian = tested on: OVCAR-3 ovarian
OVCAR-4 ovarian = tested on: OVCAR-4 ovarian
OVCAR-5 ovarian = tested on: OVCAR-5 ovarian
OVCAR-8 ovarian = tested on: OVCAR-8 ovarian
PC-3 prostate = tested on: PC-3 prostate
RPMI-8226 leukemia = tested on: RPMI-8226 leukemia
SF-268 CNS = tested on: SF-268 CNS
SF-295 CNS = tested on: SF-295 CNS
SF-539 CNS = tested on: SF-539 CNS
SK-MEL-2 melanoma = tested on: SK-MEL-2 melanoma
SK-MEL-28 melanoma = tested on: SK-MEL-28 melanoma
SK-MEL-5 melanoma = tested on: SK-MEL-5 melanoma
SK-OV-3 ovarian = tested on: SK-OV-3 ovarian
SN12C renal = tested on: SN12C renal
SNB-19 CNS = tested on: SNB-19 CNS
SNB-75 CNS = tested on: SNB-75 CNS
SR leukemia = tested on: SR leukemia
SW-620 colon = tested on: SW-620 colon
T-47D breast = tested on: T-47D breast
TK-10 renal = tested on: TK-10 renal
U251 CNS = tested on: U251 CNS
UACC-257 melanoma = tested on: UACC-257 melanoma
UACC-62 melanoma = tested on: UACC-62 melanoma
NCI/ADR-RES ovarian = tested on: NCI/ADR-RES ovarian
RXF 393 renal = tested on: RXF 393 renal
UO-31 renal = tested on: UO-31 renal

`Cc1c(Cl)cccc1NC(=O)/C=C/c1ccccc1` was tested, and the TGI (786-0 renal) was over 100 µM, the TGI (A498 renal) was over 100 µM and the TGI (A549 NSCLC) was over 100 µM. It also gave a TGI (ACHN renal) of over 100 µM, a TGI (BT-549 breast) of over 100 µM and a TGI (CAKI-1 renal) of 73.3 µM. The TGI (CCRF-CEM leukemia) was over 100 µM, the TGI (COLO 205 colon) was over 100 µM and the TGI (DU-145 prostate) was over 100 µM. For the same molecule, the TGI (EKVX NSCLC) was over 100 µM, the TGI (HCC-2998 colon) was over 100 µM and the TGI (HCT-116 colon) was over 100 µM. It also gave a TGI (HCT-15 colon) of over 100 µM, a TGI (HL-60(TB) leukemia) of over 100 µM and a TGI (HOP-62 NSCLC) of over 100 µM. For the same molecule, the TGI (HOP-92 NSCLC) was over 100 µM, the TGI (HS 578T breast) was over 100 µM and the TGI (HT29 colon) was over 100 µM. The TGI (IGROV1 ovarian) was over 100 µM, the TGI (K-562 leukemia) was over 100 µM and the TGI (KM12 colon) was over 100 µM. For the same molecule, the TGI (LOX IMVI melanoma) was over 100 µM, the TGI (M14 melanoma) was over 100 µM and the TGI (MALME-3M melanoma) was over 100 µM. For the same molecule, the TGI (MCF7 breast) was over 100 µM, the TGI (MDA-MB-231 breast) was 96.3 µM and the TGI (MDA-MB-435) was over 100 µM. It also gave a TGI (MDA-N) of over 100 µM, a TGI (MOLT-4 leukemia) of over 100 µM and a TGI (NCI-H226 lung) of over 100 µM. It also gave a TGI (NCI-H23 lung) of over 100 µM, a TGI (NCI-H460 lung) of over 100 µM and a TGI (NCI-H522 lung) of over 100 µM. The TGI (OVCAR-3 ovarian) was over 100 µM, the TGI (OVCAR-4 ovarian) was over 100 µM and the TGI (OVCAR-5 ovarian) was over 100 µM. It also gave a TGI (OVCAR-8 ovarian) of over 100 µM, a TGI (PC-3 prostate) of over 100 µM and a TGI (RPMI-8226 leukemia) of over 100 µM. The TGI (SF-268 CNS) was over 100 µM, the TGI (SF-295 CNS) was over 100 µM and the TGI (SF-539 CNS) was over 100 µM. The TGI (SK-MEL-2 melanoma) was over 100 µM, the TGI (SK-MEL-28 melanoma) was over 100 µM and the TGI (SK-MEL-5 melanoma) was over 100 µM. For the same molecule, the TGI (SK-OV-3 ovarian) was over 100 µM, the TGI (SN12C renal) was over 100 µM and the TGI (SNB-19 CNS) was over 100 µM. The TGI (SNB-75 CNS) was over 100 µM, the TGI (SR leukemia) was over 100 µM and the TGI (SW-620 colon) was over 100 µM. For the same molecule, the TGI (T-47D breast) was over 100 µM, the TGI (TK-10 renal) was over 100 µM and the TGI (U251 CNS) was over 100 µM. It also gave a TGI (UACC-257 melanoma) of over 100 µM and a TGI (UACC-62 melanoma) of over 100 µM.

With `COc1ccc2c(c1)NC1(CCN(CCCC(=O)c3ccc(F)cc3)CC1)N=N2` the TGI (786-0 renal) was 36.9 µM, the TGI (A498 renal) was 76.7 µM and the TGI (A549 NSCLC) was over 100 µM. It also gave a TGI (ACHN renal) of over 100 µM, a TGI (BT-549 breast) of 74.7 µM and a TGI (CAKI-1 renal) of 90.6 µM. For the same molecule, the TGI (CCRF-CEM leukemia) was 58.5 µM, the TGI (COLO 205 colon) was 27.8 µM and the TGI (DU-145 prostate) was 46.8 µM. It also gave a TGI (EKVX NSCLC) of over 100 µM, a TGI (HCC-2998 colon) of 28.2 µM and a TGI (HCT-116 colon) of 36 µM. It also gave a TGI (HCT-15 colon) of 52.4 µM, a TGI (HL-60(TB) leukemia) of 32.8 µM and a TGI (HOP-62 NSCLC) of 60.3 µM. It also gave a TGI (HOP-92 NSCLC) of over 100 µM, a TGI (HT29 colon) of 69.4 µM and a TGI (IGROV1 ovarian) of 64 µM. The TGI (K-562 leukemia) was 41 µM, the TGI (KM12 colon) was 41 µM and the TGI (LOX IMVI melanoma) was 35.3 µM. It also gave a TGI (M14 melanoma) of 26.6 µM, a TGI (MALME-3M melanoma) of 30.6 µM and a TGI (MCF7 breast) of 40.5 µM. It also gave a TGI (MDA-MB-231 breast) of 45.7 µM, a TGI (MDA-MB-435) of 31.4 µM and a TGI (MDA-N) of 31.6 µM. The TGI (MOLT-4 leukemia) was 41.4 µM, the TGI (NCI-H226 lung) was 95.6 µM and the TGI (NCI-H23 lung) was 97.7 µM. The TGI (NCI-H460 lung) was 93.5 µM, the TGI (NCI-H522 lung) was 33.9 µM and the TGI (NCI/ADR-RES ovarian) was over 100 µM. For the same molecule, the TGI (OVCAR-3 ovarian) was 53.5 µM, the TGI (OVCAR-4 ovarian) was over 100 µM and the TGI (OVCAR-5 ovarian) was 61.1 µM. For the same molecule, the TGI (PC-3 prostate) was over 100 µM, the TGI (RPMI-8226 leukemia) was 42.2 µM and the TGI (RXF 393 renal) was 55.1 µM. The TGI (SF-268 CNS) was over 100 µM, the TGI (SF-295 CNS) was 46.3 µM and the TGI (SF-539 CNS) was 35.9 µM. It also gave a TGI (SK-MEL-2 melanoma) of 39.8 µM, a TGI (SK-MEL-28 melanoma) of 37 µM and a TGI (SK-MEL-5 melanoma) of 25.3 µM. The TGI (SK-OV-3 ovarian) was over 100 µM, the TGI (SN12C renal) was 64.4 µM and the TGI (SNB-19 CNS) was over 100 µM. For the same molecule, the TGI (SNB-75 CNS) was 39.8 µM, the TGI (SR leukemia) was 35.4 µM and the TGI (SW-620 colon) was 57.9 µM. The TGI (T-47D breast) was 53.5 µM, the TGI (TK-10 renal) was 62.2 µM and the TGI (U251 CNS) was 48.6 µM. It also gave a TGI (UACC-257 melanoma) of 46.1 µM, a TGI (UACC-62 melanoma) of 41.6 µM and a TGI (UO-31 renal) of 57.8 µM.
